What is called IC50 is the concentration that inhibits the measured activity by half. Low readings indicate higher potency, high ones lower potency.

The test system of assay [1] is Jurkat HIV-luciferase clones. Put plainly: Jurkat latency reversal assay. In kind it is cell-based. The note with it: Homo sapiens, 48 h; Jurkat latency reversal assay potency; read-out: Jurkat pEC50 (converted). The gist of the method:
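A 1:1:1 mix of three Jurkat clones (C16, 115, N6) carrying integrated luciferase-expressing HIV proviruses, 5,000 cells/well, was exposed to 3-fold, 14-point compound titrations from 10 μM at 0.5% DMSO for 48 h at 37° C. Steady-Glo luminescence was fitted by four-parameter logistic regression to give EC50 and maximal percent activation relative to vehicle.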

The target in another assay is cIAP2-BIR2 (Homo sapiens (Human), UniProt Q13489). Kind of assay: BIR binding assay (FRET competition), cIAP2 BIR2. As to the method: (§1) The BIR domain binding assays are FRET based competition assays that utilize His-tagged versions of each of the BIR2 and BIR3 domains from cIAP1, cIAP2, and XIAP (each domain assayed separately) each at a custom optimal concentration and a probe, 200 nM SMAC/DIABLO peptide […] labelled with AlexaFluor647 (part #crb 1110326h, Discovery Peptides). The assay is conducted in 50 mM HEPES, […], 1 mM CHAPS, 5% Glycerol, 1 mM DTT, in dI water with a final pH of 7.4 and final volume of 20 uL. Final protein domain concentrations are: 50 nM cIAP1-BIR3 (Part #APT-11-370 Reaction Biology), 100 nM XIAP-BIR3 (Part #APT-11-351 Reaction Biology), 200 nM XIAP-BIR2 (Part #APT-11-470 Reaction Biology), 325 nM cIAP2-BIR2 (Part #APT-11-489 Reaction Biology), 50 nM cIAP2-BIR3 (Part #APT-11-372 Reaction Biology), 325 nM cIAP1-BIR2 (Part #APT-11-487 Reaction Biology). Compounds were plated using a HP Tecan D300 printer in a final total volume of 202 nl and DMSO concentration normalized across the 15-point, 3-fold dilution series. Peptide and probe were prepared at 2× relative to the concentrations above in binding buffer, 10 uL added to the prepared compound plates, and incubated for 60 minutes. LANCE Eu-W1024 (part #AD0401 Perkin Elmer #, vendor) was prepared at 2× concentration in binding buffer for final concentration of 2 nM, 10 uL added to each well, and plates incubated for 30 minutes. Plates were read on an ENVISION multifunction plate reader with […] laser excitation to obtain the 615 nm/665 nm emission ratio as indicative of probe:protein proximity. Data was analyzed using GraphPad PRISM and curves fit using log(inhibitor) vs. response—Variable slope (four […] method to obtain IC50 and pIC50 values.

For a further assay, the target named is cIAP1-BIR2 (Homo sapiens (Human), UniProt Q13490). Kind of assay: BIR binding assay (FRET competition), cIAP1 BIR2. On the procedure:
as §1

The next assay addresses XIAP-BIR3 (Homo sapiens (Human), UniProt P98170). Put plainly: BIR binding assay (FRET competition), XIAP BIR3. The gist of the method: (§2)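 Each domain is run separately at its own level: 50 nM cIAP1-BIR3, 100 nM XIAP-BIR3, 325 nM for cIAP1-BIR2 or cIAP2-BIR2. Probe is a 200 nM fluorescent SMAC peptide, and the value is IC50 from FRET competition.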
A further assay concerns the target cIAP2-BIR3 (Homo sapiens (Human), UniProt Q13489). Put plainly: BIR binding assay (FRET competition), cIAP2 BIR3. The note with it: for cIAP2 BIR3 vs BIR2 separation window: fold separation (FS) for cIAP2.
The target of a further assay is cIAP1-BIR3 (Homo sapiens (Human), UniProt Q13490). Kind of assay: BIR binding assay (FRET competition), cIAP1 BIR3. The note with it: for cIAP1 BIR3 vs BIR2 separation window: fold separation (FS) for cIAP1. The method, boiled down: as §2
Chain of cIAP1-BIR3 (Q13490 253-363): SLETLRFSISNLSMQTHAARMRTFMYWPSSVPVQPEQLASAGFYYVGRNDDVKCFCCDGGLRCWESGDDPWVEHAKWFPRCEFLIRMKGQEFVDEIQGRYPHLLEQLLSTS

Chain of cIAP2-BIR2 (Q13489 158-242): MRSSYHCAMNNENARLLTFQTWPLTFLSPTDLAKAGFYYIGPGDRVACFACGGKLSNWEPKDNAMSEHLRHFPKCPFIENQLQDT
Chain of cIAP2-BIR3 (Q13489 238-349): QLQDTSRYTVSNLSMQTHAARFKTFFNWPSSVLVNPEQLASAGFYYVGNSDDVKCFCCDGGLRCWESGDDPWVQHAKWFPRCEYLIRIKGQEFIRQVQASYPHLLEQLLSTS
Chain of XIAP-BIR3 (P98170 241-356): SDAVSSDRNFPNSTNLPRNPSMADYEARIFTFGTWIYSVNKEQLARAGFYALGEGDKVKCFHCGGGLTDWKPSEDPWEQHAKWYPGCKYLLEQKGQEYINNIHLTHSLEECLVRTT
Chain of cIAP1-BIR2 (Q13490 173-257): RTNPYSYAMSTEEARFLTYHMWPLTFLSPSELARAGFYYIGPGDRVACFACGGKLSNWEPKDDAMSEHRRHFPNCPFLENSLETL

As to `C[C@@H]1CN(CC(=O)N2CC(C)(C)c3[nH]c(=O)c(Cc4c(Cl)cc(Cl)cc4Cl)cc32)[C@@H](CN2CCO[C@H](C(=O)NCc3ccc(CNC(=O)[C@@H]4CN(C[C@H]5CN[C@H](C)CN5CC(=O)N5CC(C)(C)c6[nH]c(=O)c(Cc7c(Cl)cc(Cl)cc7Cl)cc65)CCO4)cc3)C2)CN1` [Compound 180, (2S,2′S)-N,N′-(1,4-phenylenebis(methylene)) bis(4-(((2R,5R)-1-(2-(3,3-dimethyl-5-oxo-6-(2,4,6-trichlorobenzyl)-2,3,4,5-tetrahydro-1H-pyrrolo[3,2-b]pyridin-1-yl)-2-oxoethyl)-5-methylpiperazin-2-yl)methyl)morpholine-2-carboxamide)], the EC50 in assay [1] was 63.1 to 316 nM. In addition, the IC50 on cIAP2-BIR2 lay within 10000 to 51300 nM; on cIAP1-BIR2 it was 10000 to 51300 nM; on XIAP-BIR3 it was 31.6 to 501 nM; at cIAP2-BIR3, 31.6 to 501 nM; on cIAP1-BIR3 it was 31.6 to 501 nM. Also, the “cIAP2 BIR3 vs BIR2 separation window” value on cIAP2-BIR3 is “++ (1,000>FS>100)”. Moreover, at cIAP1-BIR3, the “cIAP1 BIR3 vs BIR2 separation window” value was “++ (1,000>FS>100)”.
In the case of `C[C@@H]1CN(CC(=O)N2CC(C)(C)c3[nH]c(=O)c(Cc4ccc(F)cc4)cc32)[C@@H](CN2CCO[C@H](COc3ccccc3-c3ccccc3OC[C@@H]3CN(C[C@H]4CN[C@H](C)CN4CC(=O)N4CC(C)(C)c5[nH]c(=O)c(Cc6ccc(F)cc6)cc54)CCO3)C2)CN1` [Example 67, 1,1′-(2,2′-((3R,3′R,6R,6′R)-(((2S,2'S)—(([1,1′-biphenyl]-2,2′-diylbis(oxy))bis(methylene))bis(morpholine-2,4-diyl))bis(methylene))bis(3-methylpiperazine-6,1-diyl))bis(acetyl))bis(6-(4-fluorobenzyl)-3,3-dimethyl-1,2,3,4-tetrahydro-5H-pyrrolo[3,2-b]pyridin-5-one)], the EC50 in assay [1] was 0.49 to 12.6 nM. Also, the IC50 on cIAP2-BIR2 was in the range of 3160 to 10000 nM; at cIAP1-BIR2 it was 1000 to 3160 nM; on XIAP-BIR3 it was 7.94 to 15.8 nM; on cIAP2-BIR3 it was 7.94 to 15.8 nM; on cIAP1-BIR3, 7.94 to 15.8 nM.
Take `C[C@@H]1CN(CC(=O)N2CC(C)(C)c3[nH]c(=O)c(Cc4ccc(F)cc4)cc32)[C@@H](CN2CCO[C@H](COCCCCCOC[C@@H]3CN(C[C@H]4CN[C@H](C)CN4CC(=O)N4CC(C)(C)c5[nH]c(=O)c(Cc6ccc(F)cc6)cc54)CCO3)C2)CN1` [Example 82, 1,1′-(2,2′-((3R,3′R,6R,6′R)-(((2S,2'S)-((pentane-1,5-diylbis(oxy))bis(methylene))bis(morpholine-2,4-diyl))bis(methylene))bis(3-methylpiperazine-6,1-diyl))bis(acetyl))bis(6-(4-fluorobenzyl)-3,3-dimethyl-1,2,3,4-tetrahydro-5H-pyrrolo[3,2-b]pyridin-5-one)]: the EC50 in assay [1] is 0.49 to 12.6 nM. The IC50 was in the range of 1000 to 3160 nM on cIAP2-BIR2; 10000 to 51300 nM at cIAP1-BIR2; 31.6 to 501 nM at XIAP-BIR3; 15.8 to 31.6 nM at cIAP2-BIR3; 15.8 to 31.6 nM on cIAP1-BIR3. The “cIAP2 BIR3 vs BIR2 separation window” value at cIAP2-BIR3 is “+++ (10,000>FS>1,000)”. Besides, the “cIAP1 BIR3 vs BIR2 separation window” value on cIAP1-BIR3 was “++++ (FS>10,000)”.
Consider `C[C@@H]1CN(CC(=O)N2CC(C)(C)c3[nH]c(=O)c(Cc4ccc(F)cc4)cc32)[C@@H](CN2CCO[C@H](COCCCCCCOC[C@@H]3CN(C[C@H]4CN[C@H](C)CN4CC(=O)N4CC(C)(C)c5[nH]c(=O)c(Cc6ccc(F)cc6)cc54)CCO3)C2)CN1` [Example 64, 1,1′-(2,2′-((3R,3′R,6R,6′R)-(((2S,2'S)-((hexane-1,6-diylbis(oxy))bis(methylene))bis(morpholine-2,4-diyl))bis(methylene))bis(3-methylpiperazine-6,1-diyl))bis(acetyl))bis(6-(4-fluorobenzyl)-3,3-dimethyl-1,2,3,4-tetrahydro-5H-pyrrolo[3,2-b]pyridin-5-one)], for which the EC50 in assay [1] is 0.49 to 12.6 nM. Also, the IC50 was in the range of 10000 to 51300 nM at cIAP2-BIR2; 10000 to 51300 nM on cIAP1-BIR2; 7.94 to 15.8 nM on XIAP-BIR3; 1.38 to 7.94 nM on cIAP2-BIR3; 7.94 to 15.8 nM on cIAP1-BIR3.
